In US20250109127A1, “METHODS OF USE OF PHENOXYPROPYLAMINE COMPOUNDS TO TREAT DEPRESSION” (Minerva Neurosciences, Inc., priority 2013, published 2025):
Where “and” joins values, the source holds several entries; their conditions need not be identical. Equal entries are not always repeated.

Test system: 5-HT release in the rat prefrontal cortex
Assay: Microdialysis: 5-HT release in prefrontal cortex after I.P. administration
Assay type: in vivo
Settings: for 5-HT in dialysate, MEAN / 5-HT in dialysate, individual animals: Citalopram 10 mg/kg I.P.
Method: The aim of the study was to evaluate, using microdialysis, the effects of an intraperitoneal (I.P.) administration in rats of three different doses of SON-117 on dopamine and its metabolites, serotonin and its metabolite (5-HIAA), and norepinephrine levels in prefrontal cortex.
Thirty-two adult male Wistar rats were used for the whole study (4 groups of eight animals planned for the study, Table 1).
Surgery was performed on rats weighing about 300 g at the beginning of the experiments. Rats were anaesthetized with Ketamine (50 mg/kg) & Xylazine (15 mg/kg) by intramuscular administration. The animals were placed in a stereotaxic apparatus in the flat-skull position at a constant setting of −3.3 mm between ear bars and the incisor bar. The animals were treated with a local anesthesic (xylocaine 1%, Astra Zeneca) and an analgesic (Temgesic, from Schering Plough, 0.05 mg/kg, s.c.). A rostrocaudal midline incision was made with a lancet to expose the dorsal skull surface. The “stereotaxic zero” was defined by the Bregma in accordance with Paxinos and Watson's atlas (1986). A hole was drilled in the skull with a drill and the meninges were pierced with a sterile needle to implant a CMA12 guide cannula which later received the dialysis probe.
Coordinates used for implanting guide cannula in prefrontal cortex from Bregma were anteroposterior 3.7 mm, mediolateral 0.8 mm, and dorsoventral −2 mm (top of the probe was at −5 mm). The guide cannula was fixed to the skull with two stainless steel screws (1.88 mm outside diameter) anchored. An application of dental cement was added. A plastic collar allowed each animal to be tethered to a Swivel assembly of the CMA 120 awake animal system. Following surgery, rats were kept in individual cages and allowed to recover for a minimum of 3-5 days before the experimentation. The rats were handled and put in plastic bowl for 10 min at least every day to habituate the animals to their new environment for the dialysis. An I.P. administration with saline was also performed every day.
Dialysis probes (CMA12/3 mm, membrane, 20 kD cut-off, Carnegie Medicine, Stockholm, Sweden), were carefully washed before inserting into the guide cannula. The wash was performed with the artificial cerebrospinal fluid (aCSF) medium (NaCl 147 mM, KCl 2.7 mM, CaCl2 1.2 mM, MgCl2 0.85 mM) at room temperature. The dialysis system was then equilibrated at 20° C. at a perfusion rate of 1 μl/min with a Carnegie pump (CMA100). All catheters (FEP tubing, internal volume of 1.2 μl/10 cm, and tubing adaptors) used for microdialysis were treated in the same conditions.
The probes duly prepared were inserted into the guide cannula and the CMA120 Swivel assembly secured to the animal using a plastic collar. Flow through the dialysis probe with aCSF was maintained at a rate of 1 μl/min during the whole experimentation. The first four fractions (corresponding to 2 hours) were discarded to avoid the effects of parenchymal disturbance and to ensure that an approximate steady-state level was reached. Fractions were then collected over a period of 8.5 h during which time the animals remained quiet. The dialysates were automatically collected with an autosampler (microfraction collector CMA 140, Carnegie Medicin) and stored at −80° C. until analysis. […] Perfusion was then maintained for 7 hours with aCSF. The dialysates (30 μl) were collected into 300 μl vials, transferred into dry ice and then kept frozen (−80° C.) until analysis. Frozen samples were shipped to a partner for analysis. At the end of the microdialysis study, a PBS with colored ink was perfused through the probe in order to visualize the dialyzed area.
Catecholamine assay: Concentrations of dopamine, DOPAC, HVA, 5-HIAA, 5-HT, and norepinephrin were determined for each sample by HPLC coupled with electrochemical detection. […]

With `CN(C)CCCC1(c2ccc(F)cc2)OCc2cc(C#N)ccc21` (centres unmarked) [Citalopram, citalopram, reference compound] the “5-HT in dialysate, MEAN” value (T0-T30 min) was 85.23 % of respective basal, the “5-HT in dialysate, MEAN” value (T30-T1 h) was 218.92 % of respective basal and the “5-HT in dialysate, individual animals” value (T30-T1 h) was 203.59 % of respective basal and 157.98 % of respective basal and 133.67 % of respective basal and 139.45 % of respective basal and 219.64 % of respective basal and 344.10 % of respective basal and 285.92 % of respective basal and 267.00 % of respective basal. For the same compound, the “5-HT in dialysate, MEAN” value (T1 h 30-T2 h) was 170.67 % of respective basal, the “5-HT in dialysate, individual animals” value (T1 h 30-T2 h) was 103.23 % of respective basal and 101.96 % of respective basal and 153.81 % of respective basal and 83.91 % of respective basal and 207.6 % of respective basal and 351.79 % of respective basal and 164.94 % of respective basal and 198.14 % of respective basal and the “5-HT in dialysate, MEAN” value (T1 h-T1 h 30) was 171.48 % of respective basal. For the same compound, the “5-HT in dialysate, individual animals” value (T1 h-T1 h 30) was 162.56 % of respective basal and 151.29 % of respective basal and 167.46 % of respective basal and 128.56 % of respective basal and 232.85 % of respective basal and 235.03 % of respective basal and 158.66 % of respective basal and 135.42 % of respective basal, the “5-HT in dialysate, MEAN” value (T2 h 30-T3 h) was 116.57 % of respective basal and the “5-HT in dialysate, individual animals” value (T2 h 30-T3 h) was 109.55 % of respective basal and 38.11 % of respective basal and 79.68 % of respective basal and 57.89 % of respective basal and 152.73 % of respective basal and 299.86 % of respective basal and 89.94 % of respective basal and 104.76 % of respective basal. For the same compound, the “5-HT in dialysate, MEAN” value (T2 h-T2 h 30) was 138.70 % of respective basal, the “5-HT in dialysate, individual animals” value (T2 h-T2 h 30) was 97.34 % of respective basal and 43.80 % of respective basal and 100.91 % of respective basal and 83.82 % of respective basal and 153.02 % of respective basal and 315.50 % of respective basal and 215.03 % of respective basal and 100.89 % of respective basal and the “5-HT in dialysate, MEAN” value (T3 h 30-T4 h) was 126.49 % of respective basal. The “5-HT in dialysate, individual animals” value (T3 h 30-T4 h) was 93.89 % of respective basal and 20.30 % of respective basal and 84.02 % of respective basal and 59.96 % of respective basal and 97.06 % of respective basal and 476.98 % of respective basal and 67.07 % of respective basal and 112.62 % of respective basal, the “5-HT in dialysate, MEAN” value (T3 h-T3 h 30) was 136.30 % of respective basal and the “5-HT in dialysate, individual animals” value (T3 h-T3 h 30) was 88.23 % of respective basal and 47.91 % of respective basal and 85.22 % of respective basal and 48.54 % of respective basal and 108.35 % of respective basal and 516.29 % of respective basal and 70.00 % of respective basal and 125.89 % of respective basal. The “5-HT in dialysate, MEAN” value (T4 h 30-T5 h) was 90.86 % of respective basal, the “5-HT in dialysate, individual animals” value (T4 h 30-T5 h) was 89.09 % of respective basal and 13.90 % of respective basal and 77.20 % of respective basal and 44.62 % of respective basal and 120.70 % of respective basal and 212.73 % of respective basal and 55.57 % of respective basal and 113.09 % of respective basal and the “5-HT in dialysate, MEAN” value (T4 h-T4 h 30) was 97.87 % of respective basal. The “5-HT in dialysate, individual animals” value (T4 h-T4 h 30) was 128.06 % of respective basal and 25.07 % of respective basal and 73.75 % of respective basal and 50.85 % of respective basal and 85.54 % of respective basal and 261.90 % of respective basal and 76.87 % of respective basal and 80.93 % of respective basal, the “5-HT in dialysate, MEAN” value (T5 h 30-T6 h) was 75.87 % of respective basal and the “5-HT in dialysate, individual animals” value (T5 h 30-T6 h) was 78.66 % of respective basal and 7.95 % of respective basal and 69.20 % of respective basal and 42.04 % of respective basal and 72.98 % of respective basal and 142.95 % of respective basal and 74.38 % of respective basal and 118.79 % of respective basal. The “5-HT in dialysate, MEAN” value (T5 h-T5 h 30) was 92.05 % of respective basal, the “5-HT in dialysate, individual animals” value (T5 h-T5 h 30) was 77.74 % of respective basal and 11.81 % of respective basal and 73.01 % of respective basal and 50.89 % of respective basal and 87.24 % of respective basal and 227.76 % of respective basal and 54.20 % of respective basal and 153.73 % of respective basal and the “5-HT in dialysate, MEAN” value (T6 h 30-T7 h) was 76.63 % of respective basal. For the same compound, the “5-HT in dialysate, individual animals” value (T6 h 30-T7 h) was 87.93 % of respective basal and 11.23 % of respective basal and 60.60 % of respective basal and 41.05 % of respective basal, the “5-HT in dialysate, MEAN” value (T6 h-T6 h 30) was 79.25 % of respective basal and the “5-HT in dialysate, individual animals” value (T6 h-T6 h 30) was 70.23 % of respective basal and 12.51 % of respective basal and 74.22 % of respective basal and 42.28 % of respective basal and 81.01 % of respective basal and 173.04 % of respective basal and 63.01 % of respective basal and 117.68 % of respective basal. For the same compound, the “5-HT in dialysate, MEAN” value (T-30 min-T0 (pre-dose)) was 87.59 % of respective basal, the “5-HT in dialysate, MEAN” value (T-1 h 30-T-1 h (pre-dose)) was 108.45 % of respective basal and the “5-HT in dialysate, MEAN” value (T-1 h-T-30 min (pre-dose)) was 105.84 % of respective basal. The “5-HT concentrations in prefrontal cortex, significant increase” value (citalopram 10 mg/kg IP, from 1 h to 2 h) was 219% and the “5-HT release, maximum increase observed” value (citalopram 10 mg/kg, at 1 h) was 218%.
